Measured values reported in patent US8247211B2, “Glycopeptide antibiotics” (American Cyanamid Company, priority 2001, dated 2012).
Values after ≈ are worked out from the molar mass of the structure shown.

Key:
Test in all cases: In vitro antibacterial evaluation: minimum inhibitory concentration (MIC), broth dilution method
Format in all cases: cell-based
Enterococcus sp. = conditions: 18 hours at 35° C.
How it was run: (§1)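 Using Muller-Hinton II […] and an inoculum of 5×10^5 CFU/mL, antibiotic dilutions from 64 down to 0.06 μg/mL were tested following NCCLS M7-A2. The MIC is the lowest concentration inhibiting growth, including in methicillin-, penicillin- or vancomycin-resistant clinical isolates.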

Escherichia coli = Escherichia coli (GC 4560); 18 hours at 35° C.
How it was run: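 Susceptibility determined by NCCLS-recommended broth dilution (M7-A2), Muller-Hinton II […]. Concentration span 64-0.06 μg/mL, inoculum 5×10^5 CFU/mL. Isolates include strains resistant to methicillin, penicillin and/or vancomycin.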

Staphylococcus sp. = test system: Staphylococcus sp.
How it was run: as §1

Streptococcus sp. = conditions: 18 hours at 35° C.
How it was run: as §1

[1] = broth dilution, inoculum 5×10^5 CFU/mL

MIC Enterococcus avium (GC 4558) (Enterococcus sp.; Enterococcus avium (GC 4558)): 8 µg/mL (≈ 5.05 µM)
MIC Enterococcus faecalis (ATCC 29212) (Enterococcus sp.; Enterococcus faecalis (ATCC 29212)): 32 µg/mL (≈ 20.2 µM)
MIC Enterococcus faecalis (GC 2242) (Enterococcus sp.; Enterococcus faecalis (GC 2242)): 16 µg/mL (≈ 10.1 µM)
MIC Enterococcus faecalis (GC 2691) (Enterococcus sp.; Enterococcus faecalis (GC 2691)): 32 µg/mL (≈ 20.2 µM)
MIC Enterococcus faecalis (GC 3059) (Enterococcus sp.; Enterococcus faecalis (GC 3059)): 32 µg/mL (≈ 20.2 µM)
MIC Enterococcus faecalis (GC 4552) (Enterococcus sp.; Enterococcus faecalis (GC 4552)): 32 µg/mL (≈ 20.2 µM)
MIC Enterococcus faecalis (GC 4553) (Enterococcus sp.; Enterococcus faecalis (GC 4553)): 16 µg/mL (≈ 10.1 µM)
MIC Enterococcus faecalis (GC 4554) (Enterococcus sp.; Enterococcus faecalis (GC 4554)): 32 µg/mL (≈ 20.2 µM)
MIC Enterococcus faecalis (GC 6189) (Enterococcus sp.; Enterococcus faecalis (GC 6189)): 32 µg/mL (≈ 20.2 µM)
MIC Enterococcus faecium (GC 2243) (Enterococcus sp.; Enterococcus faecium (GC 2243)): 16 µg/mL (≈ 10.1 µM)
MIC Enterococcus faecium (GC 4556) (Enterococcus sp.; Enterococcus faecium (GC 4556)): 32 µg/mL (≈ 20.2 µM)
MIC Enterococcus faecium (GC 4557) (Enterococcus sp.; Enterococcus faecium (GC 4557)): 2 µg/mL (≈ 1.26 µM)
MIC Enterococcus avium (GC 4558) (Enterococcus sp.; [1]): 8 µg/mL (≈ 5.05 µM)
MIC Enterococcus faecalis (ATCC 29212) (Enterococcus sp.; [1]): 32 µg/mL (≈ 20.2 µM)
MIC Enterococcus faecalis (GC 2242) (Enterococcus sp.; [1]): 16 µg/mL (≈ 10.1 µM)
MIC Enterococcus faecalis (GC 2691) (Enterococcus sp.; [1]): 32 µg/mL (≈ 20.2 µM)
MIC Enterococcus faecalis (GC 3059) (Enterococcus sp.; [1]): 32 µg/mL (≈ 20.2 µM)
MIC Enterococcus faecalis (GC 4552) (Enterococcus sp.; [1]): 32 µg/mL (≈ 20.2 µM)
MIC Enterococcus faecalis (GC 4553) (Enterococcus sp.; [1]): 16 µg/mL (≈ 10.1 µM)
MIC Enterococcus faecalis (GC 4554) (Enterococcus sp.; [1]): 32 µg/mL (≈ 20.2 µM)
MIC Enterococcus faecalis (GC 6189) (Enterococcus sp.; [1]): 32 µg/mL (≈ 20.2 µM)
MIC Enterococcus faecium (GC 2243) (Enterococcus sp.; [1]): 16 µg/mL (≈ 10.1 µM)
MIC Enterococcus faecium (GC 4556) (Enterococcus sp.; [1]): 32 µg/mL (≈ 20.2 µM)
MIC Enterococcus faecium (GC 4557) (Enterococcus sp.; [1]): 2 µg/mL (≈ 1.26 µM)
MIC Escherichia coli (GC 4560) (Escherichia coli): 4 µg/mL (≈ 2.52 µM)
MIC Staphylococcus aureus (ATCC 29213) (Staphylococcus sp.; strain ATCC 29213): 16 µg/mL (≈ 10.1 µM)
MIC Staphylococcus aureus (GC 1131) (Staphylococcus sp.; strain GC 1131): 16 µg/mL (≈ 10.1 µM)
MIC Staphylococcus aureus (GC 3051) (Staphylococcus sp.; strain GC 3051): 16 µg/mL (≈ 10.1 µM)
MIC Staphylococcus aureus (GC 3053) (Staphylococcus sp.; strain GC 3053): 16 µg/mL (≈ 10.1 µM)
MIC Staphylococcus aureus (GC 4541) (Staphylococcus sp.; strain GC 4541): 8 µg/mL (≈ 5.05 µM)
MIC Staphylococcus aureus (GC 4542) (Staphylococcus sp.; strain GC 4542): 16 µg/mL (≈ 10.1 µM)
MIC Staphylococcus aureus-SMITH (GC 4543) (Staphylococcus sp.; strain GC 4543): 8 µg/mL (≈ 5.05 µM)
MIC Staphylococcus aureus (GC 4544) (Staphylococcus sp.; strain GC 4544): 16 µg/mL (≈ 10.1 µM)
MIC Staphylococcus aureus (GC 4545) (Staphylococcus sp.; strain GC 4545): 16 µg/mL (≈ 10.1 µM)
MIC Coagulase Negative Staphylococcus (GC 4547) (Staphylococcus sp.; strain GC 4547): 8 µg/mL (≈ 5.05 µM)
MIC Coagulase Negative Staphylococcus (GC 4548) (Staphylococcus sp.; strain GC 4548): 8 µg/mL (≈ 5.05 µM)
MIC Coagulase Negative Staphylococcus (GC 4549) (Staphylococcus sp.; strain GC 4549): 16 µg/mL (≈ 10.1 µM)
MIC Coagulase Negative Staphylococcus (GC 4551) (Staphylococcus sp.; strain GC 4551): 8 µg/mL (≈ 5.05 µM)
MIC Coagulase Negative Staphylococcus (GC 6257) (Staphylococcus sp.; strain GC 6257): 2 µg/mL (≈ 1.26 µM)
MIC Streptococcus agalactiae (GC 4564) (Streptococcus sp.; Streptococcus agalactiae (GC 4564)): 4 µg/mL (≈ 2.52 µM)
MIC Streptococcus pneumoniae (ATCC 6301) (Streptococcus sp.; Streptococcus pneumoniae (ATCC 6301)): 4 µg/mL (≈ 2.52 µM)
MIC Streptococcus pneumoniae (GC 1894) (Streptococcus sp.; Streptococcus pneumoniae (GC 1894)): 0.5 µg/mL (≈ 0.315 µM)
MIC Streptococcus pneumoniae (GC 4565) (Streptococcus sp.; Streptococcus pneumoniae (GC 4565)): 4 µg/mL (≈ 2.52 µM)
MIC Streptococcus pyogenes (GC 4563) (Streptococcus sp.; Streptococcus pyogenes (GC 4563)): 2 µg/mL (≈ 1.26 µM)
MIC Streptococcus agalactiae (GC 4564) (Streptococcus sp.; [1]): 4 µg/mL (≈ 2.52 µM)
MIC Streptococcus pneumoniae (ATCC 6301) (Streptococcus sp.; [1]): 4 µg/mL (≈ 2.52 µM)
MIC Streptococcus pneumoniae (GC 1894) (Streptococcus sp.; [1]): 0.5 µg/mL (≈ 0.315 µM)
MIC Streptococcus pneumoniae (GC 4565) (Streptococcus sp.; [1]): 4 µg/mL (≈ 2.52 µM)
MIC Streptococcus pyogenes (GC 4563) (Streptococcus sp.; [1]): 2 µg/mL (≈ 1.26 µM)
SMILES: CC(c1ccccc1)C1NC(=O)CNC(=O)C(CO)NC(=O)C(C(O)C2CN(Cc3ccc(C(F)(F)F)cc3)C(=N)N2C2OC(CO)C(O)C(O)C2O)NC(=O)C(C(O)C2CNC(=N)N2)NC(=O)C(Cc2ccc(OC3OC(CO)C(OC4OC5COC6(OC5C(O)C4O)C4CC5CC(C4)CC6C5)C(O)C3O)cc2)NC1=O (centres unmarked) [Example 226]
MIC Staphylococcus haemolyticus (GC 4546) (Staphylococcus sp.; strain GC 4546): 8 µg/mL (≈ 5.05 µM)
